Data from paper PMC7366784 (Medical Science Monitor : International Medical Journal of …, 2020).

How the values were obtained:
[1] = system: C. trachomatis; conditions: added to the replication phase of developmental cycle; cited from earlier work
[2] = system: recombinant cHtrA; format: in vitro ADME, C. trachomatis serovar D; conditions: AMP 100 μg/mL, cHtrA 100 μg/mL, 37°C, 30 min; Coomassie blue staining
[3] = system: MT-S247A (recombinant cHtrA mutant); format: in vitro ADME, C. trachomatis serovar D; conditions: AMP 100 μg/mL, mutant 100 μg/mL, 37°C, 30 min
[4] = system: MT-H143A (recombinant cHtrA mutant); format: in vitro ADME, C. trachomatis serovar D; conditions: AMP 100 μg/mL, mutant 100 μg/mL, 37°C, 30 min

CC(C)C(NC(=O)[C@@H]1CCCN1C(=O)[C@@H](NC(=O)OC(C)(C)C)C(C)C)P(=O)(Oc1ccccc1)Oc1ccccc1 (stereo partly shown) [JO146]
Effect on C. trachomatis [1]: lethal to C. trachomatis

CC[C@H](C)[C@H](NC(=O)[C@H](CCCCN)NC(=O)[C@H](CCC(=O)O)NC(=O)[C@H](CCCCN)NC(=O)[C@H](CO)NC(=O)[C@H](CCCCN)NC(=O)[C@H](CCCNC(=N)N)NC(=O)[C@H](Cc1ccccc1)NC(=O)[C@H](Cc1ccccc1)NC(=O)[C@H](CC(=O)O)NC(=O)CNC(=O)[C@H](CC(C)C)NC(=O)[C@@H](N)CC(C)C)C(=O)NCC(=O)N[C@@H](CCCCN)C(=O)N[C@@H](CCC(=O)O)C(=O)N[C@@H](Cc1ccccc1)C(=O)N[C@@H](CCCCN)C(=O)N[C@@H](CCCNC(=N)N)C(=O)N[C@H](C(=O)N[C@H](C(=O)N[C@@H](CCC(N)=O)C(=O)N[C@@H](CCCNC(=N)N)C(=O)N[C@H](C(=O)N[C@@H](CCCCN)C(=O)N[C@@H](CC(=O)O)C(=O)N[C@@H](Cc1ccccc1)C(=O)N[C@@H](CC(C)C)C(=O)N[C@@H](CCCNC(=N)N)C(=O)N[C@@H](CC(N)=O)C(=O)N[C@@H](CC(C)C)C(=O)N[C@H](C(=O)N1CCC[C@H]1C(=O)N[C@@H](CCCNC(=N)N)C(=O)N[C@H](C(=O)N[C@@H](CCC(=O)O)C(=O)N[C@@H](CO)C(=O)O)[C@@H](C)O)C(C)C)[C@@H](C)CC)C(C)C)[C@@H](C)CC [LL-37]
Degradation of AMP by 100 μg/mL recombinant cHtrA [2]: degraded all LL-37 | Degradation of AMP by MT-S247A [3]: unable to degrade LL-37 | Degradation of AMP by MT-H143A [4]: unable to degrade LL-37
